Measurements: PMC7791547, “Biochemical characterization of an E. coli cell division factor FtsE shows ATPase cycles similar to the NBDs of ABC-transporters” (Bioscience Reports, 2021)

How the values were obtained:
FtsE (FtsEEc) [1] = molecular target: T1, FtsE (FtsEEc) (Escherichia coli, UniProt P0A9R7, K41A); assay: MANT-ATP fluorescence binding; details: labelled compound; 25 mM HEPES pH 7.5, 50 mM KCl, 10 mM MgCl2; Walker A mutant
T1 construct: ftsE ORF in His-pBAD18; His-tagged, soluble, expressed in E. coli C41; Ni-NTA and two SEC rounds
T1 sequence (P0A9R7 whole entry K41A): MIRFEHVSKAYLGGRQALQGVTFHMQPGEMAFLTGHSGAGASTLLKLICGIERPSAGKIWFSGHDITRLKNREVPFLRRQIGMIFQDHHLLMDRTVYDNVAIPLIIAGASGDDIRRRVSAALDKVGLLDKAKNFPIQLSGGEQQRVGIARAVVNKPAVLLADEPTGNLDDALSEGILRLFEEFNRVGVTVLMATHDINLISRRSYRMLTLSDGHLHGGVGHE

FtsE (FtsEEc) [2] = molecular target: T2, FtsE (FtsEEc) (Escherichia coli, UniProt P0A9R7); assay: fluorescence titration, double reciprocal plot; assay type: binding
T2 construct: ftsE ORF in His-pBAD18; His-tagged, soluble, expressed in E. coli C41; Ni-NTA and two SEC rounds
T2 sequence (P0A9R7 1-222): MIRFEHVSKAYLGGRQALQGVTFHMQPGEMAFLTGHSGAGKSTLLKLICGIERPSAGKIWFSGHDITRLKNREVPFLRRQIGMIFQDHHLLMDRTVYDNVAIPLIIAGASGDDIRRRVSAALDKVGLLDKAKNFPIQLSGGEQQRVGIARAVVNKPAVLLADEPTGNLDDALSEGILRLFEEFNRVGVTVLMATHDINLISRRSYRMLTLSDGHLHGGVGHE

CNc1ccccc1C(=O)O[C@H]1[C@@H](O)[C@H](n2cnc3c(N)ncnc32)O[C@@H]1COP(=O)(O)OP(=O)(O)OP(=O)(O)O [MANT-ATP]
MANT-ATP fluorescence binding (FtsE (FtsEEc) [1]): ATP binding affinity for FtsE^K41A, and it was found to be much lower than wildtype
Kd (FtsE (FtsEEc) [2]): 21.5 ± 2.2 nM
